Test results as given in patent publication US11078202B2, “β-lactamase inhibitor and use thereof” (priority 2018, dated 2021).
Structures can show the parent of a compound that is named as a salt.

Experiments:
Type in all cases: cell-based
[1] = tested on: Acinetobacter baumannii XNWB 0007; experiment: MIC assay of test compounds combined with ceftazidime (8 μg/mL); details: ceftazidime 8 μg/mL fixed
Method in brief: (§1)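 Antibiotic potentiation test: compound serially diluted, partner β-lactam at constant concentration, CAMHB medium, saline-standardised inoculum (OD600 0.1-0.15) diluted 300-fold. Incubated 16-20 h at 35±2 °C.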

[2] = tested on: Klebsiella pneumoniae XNWB 0001; experiment: as above; details: ceftazidime 8 μg/mL fixed
Method in brief: as §1

[3] = tested on: Klebsiella pneumoniae XNWB 0002; experiment: as above; details: ceftazidime 8 μg/mL fixed
Method in brief: as §1

[4] = tested on: Klebsiella pneumoniae XNWB 0003; experiment: as above; details: ceftazidime 8 μg/mL fixed
Method in brief: as §1

[5] = tested on: Klebsiella pneumoniae XNWB 0004; experiment: as above; details: ceftazidime 8 μg/mL fixed
Method in brief: as §1

[6] = tested on: Klebsiella pneumoniae XNWB 0005; experiment: as above; details: ceftazidime 8 μg/mL fixed
Method in brief: as §1

[7] = tested on: Klebsiella pneumoniae XNWB 0006; experiment: as above; details: ceftazidime 8 μg/mL fixed
Method in brief: as §1

[8] = tested on: Pseudomonas aeruginosa XNWB 0008; experiment: as above; details: ceftazidime 8 μg/mL fixed
Method in brief: as §1

[9] = tested on: Acinetobacter baumannii XNWB 0007; experiment: MIC assay of test compounds combined with imipenem (4 μg/mL); details: imipenem 4 μg/mL fixed
Method in brief: as §1

[10] = tested on: Klebsiella pneumoniae XNWB 0001; experiment: as above; details: imipenem 4 μg/mL fixed
Method in brief: as §1

[11] = tested on: Klebsiella pneumoniae XNWB 0002; experiment: as above; details: imipenem 4 μg/mL fixed
Method in brief: as §1

[12] = tested on: Klebsiella pneumoniae XNWB 0003; experiment: as above; details: imipenem 4 μg/mL fixed
Method in brief: as §1

[13] = tested on: Klebsiella pneumoniae XNWB 0004; experiment: as above; details: imipenem 4 μg/mL fixed
Method in brief: as §1

[14] = tested on: Klebsiella pneumoniae XNWB 0005; experiment: as above; details: imipenem 4 μg/mL fixed
Method in brief: as §1

[15] = tested on: Klebsiella pneumoniae XNWB 0006; experiment: as above; details: imipenem 4 μg/mL fixed
Method in brief: as §1

[16] = tested on: Pseudomonas aeruginosa XNWB 0008; experiment: as above; details: imipenem 4 μg/mL fixed
Method in brief: as §1

[17] = tested on: Enterobacter aerogenes XNWB 0011; experiment: MIC assay of test compounds combined with ampicillin (8 μg/mL); details: ampicillin 8 μg/mL fixed
Experimental: (§2) The bacterial strains used for the minimum inhibitory concentration (MIC) test were frozen in a −80° C. ULT freezer and thawed 2 days before use. A small amount of frozen bacterial strains were scraped using a sterile inoculating loop, streaked onto a TSA solid culture dish for inoculation, and then cultured for 20-24 h at 35±2° C. in a normal atmospheric environment.
(§3) 5-10 colonies with similar morphology were picked from the culture dish using a sterile inoculating loop and then re-streaked onto a suitable solid culture dish. Then the dish was placed into a normal incubator for culture for 20-24 h at 35±2° C.
(§4) 5-10 single bacterial colonies were picked from the solid culture dish, resuspended in 500 μL of 0.9% NaCl, and adjusted to an OD600 of 0.1-0.15 with a spectrophotometer.
(§5) The bacteria were then diluted 300-fold with 1.1×CAMHB.
(§6) Test compounds of columns A-H: having a highest final test concentration of 64 μg/mL or 32 μg/mL, 2-fold diluted.
(§7) Dilution of test compounds: All test compounds were dissolved and diluted in dimethylsulfoxide (DMSO). 170 μL of 3.2 mg/mL (50*64 μg/mL) compound was transferred to wells (A1-H1) of column 1 of a dilution master plate and then 85 μL of DMSO was transferred to wells of other columns. Each compound was diluted 2-fold in sequence (i.e., 85 μL of compound was pipetted from column 1 into column 2 and mixed uniformly, 85 μL of compound was pipetted from column 2 into column 3 and mixed uniformly, then 85 μL of compound was pipetted from column 3 into column 4 and mixed uniformly, and so on until the dilution was done in column 11).
(§8) Preparation of an additive of ampicillin: Ampicillin was dissolved in ddH2O. 30 μL of 100 μg/mL (12.5×8 μg/mL) ampicillin was transferred to columns 1-11 of an additive plate, followed by the addition of 30 μL of ddH2O to column 12.
(§9) 2 μL of each compound in the dilution master plate of the test compounds was transferred to the corresponding well of the assay plates. In the mean time, 2 μL of 100% DMSO was transferred to the compound-free wells (GC and SC wells). (1) 8 μL of imipenem in the additive plate of imipenem was transferred to the corresponding wells of the assay plates; (2) 8 μL of ceftazidime in the additive plate of ceftazidime was transferred to the corresponding wells of the assay plates; (3) 8 μL of ampicillin in the additive plate of ampicillin was transferred to the corresponding wells of the assay plates.
(§10) 90 μL of corresponding bacterial inocula were added to wells (except for SC wells) of the assay plates.
(§11) After addition, the 6 assay plates were covered by sterile covers. The mixtures in the assay plates were centrifuged by a centrifuge at 1000 rpm for 30 s, and mixed uniformly by oscillating with a microplate oscillator at 800 rpm for 1 min, and then cultured in a common incubator for 16-20 h at 35±2° C.
(§12) The minimum inhibitory concentration of each compound was recorded by reference to guidelines from the Clinical and Laboratory Standards Institute.
(§13) The minimum inhibitory concentrations of the compounds of the present invention and antibiotics (imipenem, ceftazidime, and ampicillin) against 11 strains of bacteria were tested in this study by reference to the medium microdilution method as indicated by the Clinical and Laboratory Standards Institute. The effect of the test compounds in combination with imipenem, ceftazidime, and ampicillin was also tested. Compounds were diluted two-fold in 96-well plates from the highest detection concentration of 64 μg/mL. The test compounds were tested in combination with a fixed concentration of imipenem (4 μg/mL), ceftazidime (8 μg/mL), and ampicillin (8 μg/mL). The bacterial inocula in the assay plates were resuscitated from TSA and diluted in CAMHB, while growth controls (GC wells) and sterile controls (SC wells) were set up in the assay plates. […]

[18] = tested on: Escherichia coli XNWB 0009; experiment: as above; details: ampicillin 8 μg/mL fixed
Experimental: as §2, §3, §4, §5, §6, §7, §8, §9, §10, §11, §12, §13

[19] = tested on: Escherichia coli XNWB 0010; experiment: as above; details: ampicillin 8 μg/mL fixed
Experimental: as §2, §3, §4, §5, §6, §7, §8, §9, §10, §11, §12, §13

Compound	The minimum concentration of test compounds combined with ceftazidime (8 μg/mL) for bacteriostasis [1]	The minimum concentration of test compounds combined with ceftazidime (8 μg/mL) for bacteriostasis [2]	The minimum concentration of test compounds combined with ceftazidime (8 μg/mL) for bacteriostasis [3]	The minimum concentration of test compounds combined with ceftazidime (8 μg/mL) for bacteriostasis [4]	The minimum concentration of test compounds combined with ceftazidime (8 μg/mL) for bacteriostasis [5]	The minimum concentration of test compounds combined with ceftazidime (8 μg/mL) for bacteriostasis [6]	The minimum concentration of test compounds combined with ceftazidime (8 μg/mL) for bacteriostasis [7]	The minimum concentration of test compounds combined with ceftazidime (8 μg/mL) for bacteriostasis [8]	The minimum concentration of test compounds combined with imipenem (4 μg/mL) for bacteriostasis [9]	The minimum concentration of test compounds combined with imipenem (4 μg/mL) for bacteriostasis [10]	The minimum concentration of test compounds combined with imipenem (4 μg/mL) for bacteriostasis [11]	The minimum concentration of test compounds combined with imipenem (4 μg/mL) for bacteriostasis [12]	The minimum concentration of test compounds combined with imipenem (4 μg/mL) for bacteriostasis [13]	The minimum concentration of test compounds combined with imipenem (4 μg/mL) for bacteriostasis [14]	The minimum concentration of test compounds combined with imipenem (4 μg/mL) for bacteriostasis [15]	The minimum concentration of test compounds combined with imipenem (4 μg/mL) for bacteriostasis [16]	The minimum concentration of test compounds combined with ampicillin (8 μg/mL) for bacteriostasis [17]	The minimum concentration of test compounds combined with ampicillin (8 μg/mL) for bacteriostasis [18]	The minimum concentration of test compounds combined with ampicillin (8 μg/mL) for bacteriostasis [19]
NCc1nnc([C@@H]2CC3(CC3)[C@@H]3CN2C(=O)N3OS(=O)(=O)O)o1 [Example 2, (1R,4S)-4-(5-(aminomethyl)-1,3,4-oxadiazol-2-yl)-6-oxo-5,7-diazaspiro[bicycle [3.2.1]octane-2,1′-cyclopropan]-7-yl sulfate]	C (C: 16-128 μg/mL)	A (A: <8 μg/mL)	A (A: <8 μg/mL)	A (A: <8 μg/mL)	B (B: 8-16 μg/mL)	A (A: <8 μg/mL)	A (A: <8 μg/mL)	C (C: 16-128 μg/mL)	C (C: 16-128 μg/mL)	A (A: <8 μg/mL)	A (A: <8 μg/mL)	A (A: <8 μg/mL)	A (A: <8 μg/mL)	A (A: <8 μg/mL)	A (A: <8 μg/mL)	C (C: 16-128 μg/mL)	A (A: <8 μg/mL)	A (A: <8 μg/mL)	A (A: <8 μg/mL)
N=C1NC[C@@H](c2nnc([C@@H]3CC4(CC4)[C@@H]4CN3C(=O)N4OS(=O)(=O)O)o2)N1 [Example 55, (1R,4S)-4-(5-((S)-2-iminoimidazolidin-4-yl)-1,3,4-oxadiazol-2-yl)-6-oxo-5,7-diazaspiro [bicyclo[3.2.1]octane-2,1′-cyclopropan]-7-yl sulfate]	C (C: 16-128 μg/mL)	A (A: <8 μg/mL)	A (A: <8 μg/mL)	A (A: <8 μg/mL)	A (A: <8 μg/mL)	A (A: <8 μg/mL)	A (A: <8 μg/mL)	B (B: 8-16 μg/mL)	A (A: <8 μg/mL)	A (A: <8 μg/mL)	A (A: <8 μg/mL)	A (A: <8 μg/mL)	A (A: <8 μg/mL)	A (A: <8 μg/mL)	A (A: <8 μg/mL)	A (A: <8 μg/mL)			
N=C1NC[C@H](c2nnc([C@@H]3CC4(CC4)[C@@H]4CN3C(=O)N4OS(=O)(=O)O)o2)N1 [Example 56, (1R,4S)-4-(5-((R)-2-iminoimidazolidin-4-yl)-1,3,4-oxadiazol-2-yl)-6-oxo-5,7-diazaspiro[bicyclo[3.2.1]octane-2,1′-cyclopropan]-7-yl sulfate]	C (C: 16-128 μg/mL)	A (A: <8 μg/mL)	A (A: <8 μg/mL)	A (A: <8 μg/mL)	A (A: <8 μg/mL)	A (A: <8 μg/mL)	A (A: <8 μg/mL)	B (B: 8-16 μg/mL)	B (B: 8-16 μg/mL)	A (A: <8 μg/mL)	A (A: <8 μg/mL)	A (A: <8 μg/mL)	A (A: <8 μg/mL)	A (A: <8 μg/mL)	A (A: <8 μg/mL)	B (B: 8-16 μg/mL)			
O=C(NC1CCNCC1)[C@@H]1CC[C@@H]2CN1C(=O)N2OS(=O)(=O)O [Relebactam, reference compound]	C (C: 16-128 μg/mL)	A (A: <8 μg/mL)	A (A: <8 μg/mL)	A (A: <8 μg/mL)	A (A: <8 μg/mL)	A (A: <8 μg/mL)	A (A: <8 μg/mL)	A (A: <8 μg/mL)	C (C: 16-128 μg/mL)	A (A: <8 μg/mL)	A (A: <8 μg/mL)	A (A: <8 μg/mL)	A (A: <8 μg/mL)	A (A: <8 μg/mL)	A (A: <8 μg/mL)	A (A: <8 μg/mL)			
